In patent publication US20250108119A1, “NOVEL STEROID PAYLOADS, STEROID LINKERS, ADCs CONTAINING AND USE THEREOF” (IMMUNEXT, INC., priority 2021, published 2025):
Entries after “also recorded” stand apart in the source; their conditions may differ.

How the values were obtained:
[1] = Plasma corticosterone after repeated treatment; format: in vivo, hVISTA KI mice; settings: Dex 2 or 0.2 mg/Kg daily for 4 days; INX201J 10 or 3 mg/Kg (0.2 or 0.06 mg/Kg of payload) on days 1, 3 and 4
Experimental: On day 5, mice were bled and their corticosterone levels assessed by ELISA.
The experiment was performed in female hVISTA KI mice. […] A control group was included that received daily PBS injections. On day 5, mice were bled and their plasma corticosterone levels assessed by ELISA.
The ELISA was conducted following the manufacturer's included protocol using Arbor Assays (cat #K014-H5) Corticosterone 5 pack ELISA Kit.

[2] = system: transferred naïve CD4 T cells from hVISTA KI mice; test: T cell transfer colitis model; format: in vivo, Rag1-/- mice
Experimental: After >21 days, animals slowly start to lose weight and decreases in circulating naïve T cells are observed. In this model, the ADC targets only the transferred cells while the free GC can act on both transferred and host cells.
In EXPERIMENT 1, mice were treated with INX234P at 10 mg/Kg starting on day 0 and then once a week. […] In EXPERIMENT 1 treatment was initiated on day 0 (prophylactic) and terminated on day 61, whereas in EXPERIMENT 2 treatment was initiated on day 21 (or therapeutic) and remains ongoing at the time of this filing.
In both experiments, all treatments were administered once a week.
For EXPERIMENT 1, INX234P treatment was initiated on day 0 (or prophylactic) after naïve CD4 T cell transfer and terminated on day 61.
Naïve CD4 T cells were isolated from hVISTA KI spleen using an EasySep™ Mouse Naïve CD4+ T cell Isolation kit from StemCell (catalog #19765) following manufacturer instruction.
Following the protocol of Ostanin et al (2008), […] naïve CD45RB+, CD4+ T cells were injected i.p. on day 0
10 ml of antibody cocktail (see table on the right) was directly added to […] of blood. After 30 min incubation at room temperature (RT), 600 ml BD FACS lysis buffer was added to the sample. After 30 min incubation at RT, samples were spun at 550 rcf for 5 min, washed once in PBS, and then resuspended in a fixed volume of PBS. […]

[3] = system: steroid responsive genes in bone; test: RNAseq of mouse bones after treatment; settings: INX231P 10 mg/Kg i.p. 20h (hVISTA KI); Dex 2 mg/Kg 2h (C57BI/6)
[4] = system: steroid responsive genes in bone (Fkpb5, RANKL, ddit4, Fam107a); test: Steroid responsive gene transcription in bone (RNAseq); format: in vivo, mouse; settings: Dex 2 mg/Kg i.p., 2h
Description: In the figure Fkpb5 is shown on the left, RANKL the middle left, ddit4 the middle right and Fam107a on the extreme right.

[5] = Payload accumulation in cynomolgus tissues (LC-MS/MS); settings: single i.v.; INX234P 10 mg/kg, dexamethasone 2 mg/kg

C[C@@H]1C[C@H]2[C@@H]3CCC4=CC(=O)C=C[C@]4(C)[C@@]3(F)[C@@H](O)C[C@]2(C)[C@@]1(O)C(=O)CO [Dex, dexamethasone]
basal plasma corticosterone levels on day 5 [1]: Dex at 2 mg/Kg dramatically decreased basal corticosterone levels; also recorded: only limited though significant impact at 0.2 mg/Kg | mice that had to be sacrificed ([2]; EXPERIMENT 1: high Dex (2 mg/Kg), 2 out of 10): 20% | median survival ([2]; EXPERIMENT 1: once a week day 0 to day 61, unconjugated INX234 10 mg/Kg, low Dex 0.2 mg/Kg): 72.5 days | FKBP5 in bone (RNAseq) [3]: robust FKBP5 induction | impact on steroid responsive genes in bone [4]: significantly impacted | accumulated compound in tissues at 24h (ng of compound/g of tissue) [5]: little accumulated free dexamethasone at 24h in any tissue
